# Laboratory results as given in patent publication US6495591B1, “Fungal efflux pump inhibitors” (Essential Therapeutics, Inc., priority 1997, dated 2002).
# Where two headings read alike, the source gives them in different places.
# Key:
# [1] = system: YEM 13 C. albicans BEN up; assay: microbe, parasite or virus in culture; assay type: cell-based; details: YEM 13, 24 hrs, 80% inhibition; for MIC of compound in the presence of fluconazole (+): 1/8 × MIC of fluconazole
# [2] = target: pBEN (MF) efflux pump in S. cerevisiae YEM-2 (Candida albicans, UniProt P28873); assay: cell-based; assay type: cell-based, C. albicans
# [3] = system: YEM 17 C. glabrata, CgCDR up; assay type: cell-based; details: 24 hrs, 80% inhibition; for MIC of compound in the presence of fluconazole (+): 1/8 × MIC of fluconazole
# [4] = system: C. albicans YEM-30 (wild-type, no pump deleted); assay: microbe, parasite or virus in culture; assay type: cell-based
# [5] = system: C. albicans YEM-13 (BEN overexpressor); assay: microbe, parasite or virus in culture; assay type: cell-based; details: Candida albicans, read-out: MIC Mb alone
# [6] = system: YEM 27 C. albicans ΔCDR1ΔCDR2 ΔBENΔFLU1; assay: microbe, parasite or virus in culture; assay type: cell-based; details: YEM 27, 24 hrs, 80% inhibition; for MIC of compound in the presence of fluconazole (+): 1/8 × MIC of fluconazole
# [7] = target: pCDR2 (ABC) efflux pump in S. cerevisiae YEM-37 (Candida albicans, UniProt P78595); assay: cell-based; assay type: cell-based, C. albicans
# [8] = system: YEM 51 C. glabrata wt; assay: FEPI MIC with/without 1/8 fluconazole MIC at 24 hrs (Table 11); assay type: cell-based; details: for MIC of compound in the absence of fluconazole (−): YEM 51, 24 hrs, 80% inhibition
# [9] = system: pCgBEN (MF) efflux pump in S. cerevisiae YEM-40; assay type: cell-based, C. glabrata; details: YEM-40 pCgBEN; fluconazole fixed at FLUhalf 2.8
# [10] = system: YEM 24 C. albicans ΔCDR1, ΔCDR2; assay: microbe, parasite or virus in culture; assay type: cell-based; details: YEM 24, 24 hrs, 80% inhibition; for MIC of compound in the presence of fluconazole (+): 1/8 × MIC of fluconazole
# [11] = system: YEM 53 C. krusei; assay: FEPI MIC with/without 1/8 fluconazole MIC at 24 hrs (Table 11); assay type: cell-based; details: for MIC of compound in the absence of fluconazole (−): YEM 53, 24 hrs, 80% inhibition
# [12] = target: pCDRI (ABC) efflux pump in S. cerevisiae YEM-1 (Candida albicans, UniProt P43071); assay: cell-based; assay type: cell-based, C. albicans
# [13] = system: YEM 15 C. albicans, CDR1CDR2 up; assay: microbe, parasite or virus in culture; assay type: cell-based; details: YEM 15, 24 hrs, 80% inhibition; for MIC of compound in the presence of fluconazole (+): 1/8 × MIC of fluconazole
# [14] = target: pCgCDR (ABC) efflux pump in S. cerevisiae YEM-39 (Candida glabrata, UniProt Q6FK23); assay: cell-based; assay type: cell-based, C. glabrata
# [15] = system: Aspergillus fumigatus; assay: FEPI MICs in combination with 1/4 the azole's MIC (Table 12); assay type: cell-based; details: for FEPI MIC with itraconazole, 60% Inh / FEPI MIC with itraconazole, 80% Inh: itraconazole 0.063 μg/ml (1/4 MIC); for FEPI MIC with itraconazole, 60% Inh / FEPI MIC with ketoconazole, 60% Inh: 60% inhibition; for FEPI MIC with itraconazole, 80% Inh / FEPI MIC with ketoconazole, 80% Inh / FEPI MIC (alone): 80% inhibition; for FEPI MIC with ketoconazole, 60% Inh / FEPI MIC with ketoconazole, 80% Inh: ketoconazole 4 μg/ml (1/4 MIC); for FEPI MIC (alone): no azole, 35° C., CM Broth
# Protocol: The combinations were tested against a series of Candida strain with known expression of efflux pumps or with complete deletion of all known pumps and Aspergillus fumigatus. Results are reported as minimum inhibitory concentration (MIC) of […] in the presence or absence of […]. A total of 27 distinct milbemycins were studied.
# [16] = system: YEM 30 C. albicans wt; assay: FEPI MIC with/without 1/8 fluconazole MIC at 24 hrs (Table 11); assay type: cell-based; details: for MIC of compound in the absence of fluconazole (−): YEM 30, 24 hrs, 80% inhibition
# [17] = system: S. cerevisiae YEM-2 (BEN introduced); assay: microbe, parasite or virus in culture; assay type: cell-based; details: Saccharomyces cerevisiae, read-out: MIC Mb alone
# [18] = system: C. glabrata YEM-17 (CgCDR overexpressor); assay: microbe, parasite or virus in culture; assay type: cell-based; parameters: MIC Reduction Factor, fluconazole / MIC Reduction Factor, itraconazole / MIC Reduction Factor, ketoconazole / MIC Reduction Factor, terbinafine: unit not given beside the values; details: for MIC: Nakaseomyces glabratus
# [19] = system: S. cerevisiae YEM-39 overexpressing CgCDR (C. glabrata); assay: microbe, parasite or virus in culture; assay type: cell-based; parameters: MIC Reduction Factor, fluconazole: unit not given beside the values; details: for MIC: Saccharomyces cerevisiae
# [20] = system: C. glabrata clinical isolates (n = 12); assay: microbe, parasite or virus in culture; assay type: cell-based
# [21] = system: C. krusei; assay: microbe, parasite or virus in culture; assay type: cell-based
# [22] = read-out: Terbinafine MIC in the presence of FEPImax
# [23] = YEM-17, milbemycin α9 at FEPImax
# [24] = YEM-39 (CgCDR), milbemycin α9 at FEPImax
# [25] = YEM-39, milbemycin α9 at FEPImax
# pCDRI (ABC) efflux pump in S. cerevisiae YEM-1, sequence (P43071 whole entry): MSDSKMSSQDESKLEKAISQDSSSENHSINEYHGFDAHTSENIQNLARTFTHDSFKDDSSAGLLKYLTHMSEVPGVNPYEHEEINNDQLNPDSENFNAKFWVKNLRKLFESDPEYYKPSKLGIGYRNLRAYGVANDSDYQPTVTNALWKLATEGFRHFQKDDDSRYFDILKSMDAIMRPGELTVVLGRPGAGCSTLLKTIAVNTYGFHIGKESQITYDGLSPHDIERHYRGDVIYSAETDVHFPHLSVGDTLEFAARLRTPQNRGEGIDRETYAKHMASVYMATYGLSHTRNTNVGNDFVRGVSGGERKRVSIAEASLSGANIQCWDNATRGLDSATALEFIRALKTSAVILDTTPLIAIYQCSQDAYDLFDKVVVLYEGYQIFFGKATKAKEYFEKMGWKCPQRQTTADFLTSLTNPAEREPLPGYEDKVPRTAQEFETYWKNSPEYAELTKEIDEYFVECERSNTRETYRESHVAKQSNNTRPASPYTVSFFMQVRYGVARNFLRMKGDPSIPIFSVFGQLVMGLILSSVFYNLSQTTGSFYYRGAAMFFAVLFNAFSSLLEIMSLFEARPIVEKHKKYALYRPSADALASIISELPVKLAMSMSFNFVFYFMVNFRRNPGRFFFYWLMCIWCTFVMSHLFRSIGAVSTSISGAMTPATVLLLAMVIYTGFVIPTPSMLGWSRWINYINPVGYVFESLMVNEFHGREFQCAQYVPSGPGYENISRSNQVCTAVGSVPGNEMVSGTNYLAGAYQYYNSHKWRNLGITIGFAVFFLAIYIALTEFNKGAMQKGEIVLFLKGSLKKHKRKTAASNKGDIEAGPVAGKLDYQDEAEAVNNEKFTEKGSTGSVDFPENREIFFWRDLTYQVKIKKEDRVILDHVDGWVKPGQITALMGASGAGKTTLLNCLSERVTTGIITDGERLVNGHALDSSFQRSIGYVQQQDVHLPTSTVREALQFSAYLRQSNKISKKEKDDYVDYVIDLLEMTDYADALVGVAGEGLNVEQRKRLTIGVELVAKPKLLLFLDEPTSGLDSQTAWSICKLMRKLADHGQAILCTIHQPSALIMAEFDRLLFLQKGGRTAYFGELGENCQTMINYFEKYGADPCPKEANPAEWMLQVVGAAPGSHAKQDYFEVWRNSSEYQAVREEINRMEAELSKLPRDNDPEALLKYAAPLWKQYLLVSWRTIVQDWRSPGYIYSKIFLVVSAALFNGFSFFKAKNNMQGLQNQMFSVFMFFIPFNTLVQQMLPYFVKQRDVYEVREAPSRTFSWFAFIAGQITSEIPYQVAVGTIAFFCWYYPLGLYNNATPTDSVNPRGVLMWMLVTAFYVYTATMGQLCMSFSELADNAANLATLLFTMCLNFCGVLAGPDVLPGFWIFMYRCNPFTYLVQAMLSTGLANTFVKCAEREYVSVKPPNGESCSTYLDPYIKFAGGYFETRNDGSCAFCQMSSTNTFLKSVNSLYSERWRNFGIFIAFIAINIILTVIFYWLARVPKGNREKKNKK
# pCgCDR (ABC) efflux pump in S. cerevisiae YEM-39, sequence (Q6FK23 whole entry): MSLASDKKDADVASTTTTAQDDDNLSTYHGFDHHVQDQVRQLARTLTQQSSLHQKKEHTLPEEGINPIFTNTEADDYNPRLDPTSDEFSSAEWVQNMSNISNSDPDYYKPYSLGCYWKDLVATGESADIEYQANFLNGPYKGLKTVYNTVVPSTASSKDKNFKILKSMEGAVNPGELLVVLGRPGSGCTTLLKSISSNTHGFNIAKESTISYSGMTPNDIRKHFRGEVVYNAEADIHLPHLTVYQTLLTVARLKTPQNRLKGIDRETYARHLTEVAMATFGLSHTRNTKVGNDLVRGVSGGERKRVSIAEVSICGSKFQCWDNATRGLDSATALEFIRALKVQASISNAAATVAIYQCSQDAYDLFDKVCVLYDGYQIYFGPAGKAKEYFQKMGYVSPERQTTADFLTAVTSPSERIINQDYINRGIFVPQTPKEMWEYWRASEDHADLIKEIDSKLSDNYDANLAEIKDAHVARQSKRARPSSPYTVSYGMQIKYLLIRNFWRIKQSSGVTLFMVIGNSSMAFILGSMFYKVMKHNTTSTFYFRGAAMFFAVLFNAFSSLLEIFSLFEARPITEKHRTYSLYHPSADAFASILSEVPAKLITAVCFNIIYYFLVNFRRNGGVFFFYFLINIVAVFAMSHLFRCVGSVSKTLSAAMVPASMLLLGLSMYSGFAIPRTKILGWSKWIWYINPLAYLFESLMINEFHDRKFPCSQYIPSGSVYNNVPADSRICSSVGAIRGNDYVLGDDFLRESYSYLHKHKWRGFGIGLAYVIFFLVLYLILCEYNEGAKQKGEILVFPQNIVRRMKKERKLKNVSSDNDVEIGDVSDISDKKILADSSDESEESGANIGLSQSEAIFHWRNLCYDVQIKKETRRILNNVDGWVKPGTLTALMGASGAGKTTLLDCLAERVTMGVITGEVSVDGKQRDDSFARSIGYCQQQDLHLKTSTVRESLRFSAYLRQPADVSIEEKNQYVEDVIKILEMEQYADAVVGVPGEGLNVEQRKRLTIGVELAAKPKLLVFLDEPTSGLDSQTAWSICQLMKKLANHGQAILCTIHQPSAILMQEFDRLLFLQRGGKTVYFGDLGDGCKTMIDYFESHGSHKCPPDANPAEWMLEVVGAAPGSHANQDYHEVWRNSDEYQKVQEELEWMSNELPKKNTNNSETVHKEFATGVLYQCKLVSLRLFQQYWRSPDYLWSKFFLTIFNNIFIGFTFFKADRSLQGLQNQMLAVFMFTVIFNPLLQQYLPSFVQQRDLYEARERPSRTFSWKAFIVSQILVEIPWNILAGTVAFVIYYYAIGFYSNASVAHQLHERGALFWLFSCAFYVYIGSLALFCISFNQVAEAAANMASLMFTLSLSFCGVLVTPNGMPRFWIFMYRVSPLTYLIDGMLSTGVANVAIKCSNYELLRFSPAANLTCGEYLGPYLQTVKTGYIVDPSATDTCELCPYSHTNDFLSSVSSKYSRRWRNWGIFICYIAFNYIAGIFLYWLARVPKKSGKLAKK
# pCDR2 (ABC) efflux pump in S. cerevisiae YEM-37, sequence (P78595 whole entry): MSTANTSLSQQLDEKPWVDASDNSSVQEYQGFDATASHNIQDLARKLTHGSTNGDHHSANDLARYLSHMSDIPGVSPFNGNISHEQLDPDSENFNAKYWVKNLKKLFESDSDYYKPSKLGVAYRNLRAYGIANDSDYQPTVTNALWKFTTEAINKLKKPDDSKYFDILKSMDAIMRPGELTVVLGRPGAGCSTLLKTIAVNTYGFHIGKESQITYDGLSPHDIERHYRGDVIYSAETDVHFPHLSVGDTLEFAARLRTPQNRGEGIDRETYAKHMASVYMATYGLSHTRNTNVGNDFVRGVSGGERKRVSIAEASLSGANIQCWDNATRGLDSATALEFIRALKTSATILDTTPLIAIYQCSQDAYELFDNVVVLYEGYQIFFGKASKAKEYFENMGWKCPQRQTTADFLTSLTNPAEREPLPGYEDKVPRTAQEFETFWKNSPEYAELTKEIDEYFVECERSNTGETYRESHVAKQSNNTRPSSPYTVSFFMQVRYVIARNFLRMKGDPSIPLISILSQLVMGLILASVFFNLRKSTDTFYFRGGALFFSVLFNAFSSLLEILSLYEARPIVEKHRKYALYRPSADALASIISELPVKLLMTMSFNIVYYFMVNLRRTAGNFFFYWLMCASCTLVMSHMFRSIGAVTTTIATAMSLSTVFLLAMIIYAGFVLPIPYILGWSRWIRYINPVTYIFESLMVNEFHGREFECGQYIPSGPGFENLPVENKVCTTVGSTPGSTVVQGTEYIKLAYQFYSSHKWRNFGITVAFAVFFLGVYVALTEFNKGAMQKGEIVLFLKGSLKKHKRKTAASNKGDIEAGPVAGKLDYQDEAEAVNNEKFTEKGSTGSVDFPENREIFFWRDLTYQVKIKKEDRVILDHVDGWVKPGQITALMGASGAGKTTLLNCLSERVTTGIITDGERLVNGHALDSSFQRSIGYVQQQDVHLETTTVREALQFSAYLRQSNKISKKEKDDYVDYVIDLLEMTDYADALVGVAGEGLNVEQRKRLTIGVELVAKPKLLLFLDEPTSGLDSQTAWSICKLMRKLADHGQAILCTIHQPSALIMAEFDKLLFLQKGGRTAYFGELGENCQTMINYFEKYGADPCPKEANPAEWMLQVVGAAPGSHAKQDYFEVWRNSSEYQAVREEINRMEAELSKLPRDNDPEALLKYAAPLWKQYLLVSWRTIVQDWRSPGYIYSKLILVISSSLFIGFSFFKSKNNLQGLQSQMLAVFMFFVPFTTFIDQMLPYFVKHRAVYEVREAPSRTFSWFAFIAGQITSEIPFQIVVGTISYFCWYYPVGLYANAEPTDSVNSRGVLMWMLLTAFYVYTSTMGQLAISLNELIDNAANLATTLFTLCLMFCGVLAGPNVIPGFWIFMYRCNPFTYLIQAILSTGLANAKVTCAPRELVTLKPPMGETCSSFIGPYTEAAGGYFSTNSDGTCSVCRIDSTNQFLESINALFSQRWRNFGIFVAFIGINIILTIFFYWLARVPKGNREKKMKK
# pBEN (MF) efflux pump in S. cerevisiae YEM-2, sequence (P28873 whole entry): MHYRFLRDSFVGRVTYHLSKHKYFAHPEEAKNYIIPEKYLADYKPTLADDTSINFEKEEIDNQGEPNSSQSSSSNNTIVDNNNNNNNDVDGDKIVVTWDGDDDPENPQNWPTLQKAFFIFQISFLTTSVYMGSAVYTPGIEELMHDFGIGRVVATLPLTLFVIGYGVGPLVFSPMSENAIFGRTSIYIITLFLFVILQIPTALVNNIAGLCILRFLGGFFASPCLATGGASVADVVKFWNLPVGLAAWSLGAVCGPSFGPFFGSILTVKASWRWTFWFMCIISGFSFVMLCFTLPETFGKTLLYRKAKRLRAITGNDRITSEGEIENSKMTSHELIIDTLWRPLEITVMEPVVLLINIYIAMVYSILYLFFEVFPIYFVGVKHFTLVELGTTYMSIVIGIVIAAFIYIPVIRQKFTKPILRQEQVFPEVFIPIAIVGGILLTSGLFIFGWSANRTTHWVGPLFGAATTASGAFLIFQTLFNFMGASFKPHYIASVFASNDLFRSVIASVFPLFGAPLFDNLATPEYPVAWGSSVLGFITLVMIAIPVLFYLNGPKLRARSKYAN
structure (smiles),measurement,setting,value
"CO[C@H]1C[C@@]2(O)/C(CO)=C/C=C/[C@H](C)C/C(C)=C/C[C@@H]3C[C@@H](C[C@]4(CC[C@H](C)[C@@H](C)O4)O3)OC(=O)[C@@H]2C=C1C [Compound 6, Milbemycin β1]",MIC of compound in the presence of fluconazole (+),[1],> 64 µg/mL
same,MIC of compound in the absence of fluconazole (−),[1],> 64 µg/mL
same,IC50,"[2]; read-out: FEPIhalf (concentration needed to reduce activity of efflux pump by 50%), YEM-2 pBEN, fluconazole fixed at FLUhalf 5.6",29.4 µM
same,MIC of compound in the presence of fluconazole (+),[3],1 µg/mL
same,MIC of compound in the absence of fluconazole (−),[3],> 64 µg/mL
same,MIC,"[4]; Candida albicans, read-out: MIC Mb alone",16 µg/mL
same,"MIC of fluconazole, Flu + Mb (2.5 μg/ml)","[4]; YEM-30, milbemycin β1 2.5 μg/ml",0.125 µg/mL
same,MIC,[5],32 µg/mL
same,MIC of compound in the presence of fluconazole (+),[6],64 µg/mL
same,MIC of compound in the absence of fluconazole (−),[6],> 64 µg/mL
same,IC50,"[7]; read-out: FEPIhalf (concentration needed to reduce activity of efflux pump by 50%), YEM-37 pCDR2, fluconazole fixed at FLUhalf 1",3.67 µM
same,MIC of compound in the presence of fluconazole (+),[8],8 µg/mL
same,MIC of compound in the absence of fluconazole (−),[8],> 64 µg/mL
same,FEPIhalf (concentration needed to reduce activity of efflux pump by 50%),[9],16
same,MIC of compound in the presence of fluconazole (+),[10],> 64 µg/mL
same,MIC of compound in the absence of fluconazole (−),[10],> 64 µg/mL
same,MIC of compound in the presence of fluconazole (+),[11],8 µg/mL
same,MIC of compound in the absence of fluconazole (−),[11],> 64 µg/mL
same,IC50,"[12]; read-out: FEPIhalf (concentration needed to reduce activity of efflux pump by 50%), YEM-1 pCDRI, fluconazole fixed at FLUhalf 5.6",0.918 µM
same,MIC of compound in the presence of fluconazole (+),[13],≦0.03
same,MIC of compound in the absence of fluconazole (−),[13],> 64 µg/mL
same,IC50,"[14]; read-out: FEPIhalf (concentration needed to reduce activity of efflux pump by 50%), YEM-39 pCgCDR, fluconazole fixed at FLUhalf 4",3.67 µM
same,"FEPI MIC with fluconazole, 60% Inh",[15],2
same,"FEPI MIC with fluconazole, 80% Inh",[15],>64
same,"FEPI MIC with itraconazole, 60% Inh",[15],>64
same,"FEPI MIC with itraconazole, 80% Inh",[15],>64
same,"FEPI MIC with ketoconazole, 60% Inh",[15],≦0.063
same,"FEPI MIC with ketoconazole, 80% Inh",[15],4
same,FEPI MIC (alone),[15],>64
same,MIC of compound in the presence of fluconazole (+),[16],≦0.03
same,MIC of compound in the absence of fluconazole (−),[16],> 64 µg/mL
same,MIC,[17],8 µg/mL
"C/C1=C\C[C@@H]2C[C@@H](C[C@]3(CC[C@H](C)[C@@H](C)O3)O2)OC(=O)[C@@H]2C=C(COC(=O)c3ccc[nH]3)[C@@H](O)[C@H]3OC/C(=C\C=C\[C@H](C)C1)[C@]32O [Compound 11, Milbemycin α9]",MIC of compound in the presence of fluconazole (+),[1],> 64 µg/mL
same,MIC of compound in the absence of fluconazole (−),[1],> 64 µg/mL
same,IC50,[2],> 100 µM
same,MIC of compound in the presence of fluconazole (+),[3],0.5 µg/mL
same,MIC of compound in the absence of fluconazole (−),[3],> 64 µg/mL
same,MIC,[18]; read-out: Milbemycin α9 MIC,> 64 µg/mL
same,MIC,[18]; [22],4 µg/mL
same,"FEPImax (minimal milbemycin α9 conc. for maximum MIC reduction), fluconazole",[18]; YEM-17,8 µg/mL
same,"FEPImax (minimal milbemycin α9 conc. for maximum MIC reduction), itraconazole",[18]; YEM-17,4 µg/mL
same,"FEPImax (minimal milbemycin α9 conc. for maximum MIC reduction), ketoconazole",[18]; YEM-17,16 µg/mL
same,"FEPImax (minimal milbemycin α9 conc. for maximum MIC reduction), terbinafine",[18]; YEM-17,4 µg/mL
same,Fluconazole MIC in the presence of FEPImax,[18]; [23],4 µg/mL
same,Itraconazole MIC in the presence of FEPImax,[18]; [23],0.125 µg/mL
same,Ketoconazole MIC in the presence of FEPImax,[18]; [23],0.06 µg/mL
same,"MIC Reduction Factor, fluconazole",[18]; [23],32
same,"MIC Reduction Factor, itraconazole",[18]; [23],1024
same,"MIC Reduction Factor, ketoconazole",[18]; [23],32
same,"MIC Reduction Factor, terbinafine",[18]; [23],32
same,MIC,[19]; read-out: Milbemycin α9 MIC,> 64 µg/mL
same,MIC,[19]; [22],1 µg/mL
same,"FEPImax (minimal milbemycin α9 conc. for maximum MIC reduction), fluconazole",[19]; YEM-39 (CgCDR),2 µg/mL
same,"FEPImax (minimal milbemycin α9 conc. for maximum MIC reduction), terbinafine",[19]; YEM-39 (CgCDR),2 µg/mL
same,"Pump inhibition (%), fluconazole",[19]; [24],60%
same,"Pump inhibition (%), terbinafine",[19]; [24],66%
same,Fluconazole MIC in the presence of FEPImax,[19]; [25],4 µg/mL
same,"MIC Reduction Factor, fluconazole",[19]; [25],16
same,Inhibition of CgCDR efflux pump from C. glabrata,"[19]; summary of Table 9, fluconazole and terbinafine",60-65%
same,MIC of compound in the presence of fluconazole (+),[6],> 64 µg/mL
same,MIC of compound in the absence of fluconazole (−),[6],> 64 µg/mL
same,IC50,[7],3.14 µM
same,MIC of compound in the presence of fluconazole (+),[8],1 µg/mL
same,MIC of compound in the absence of fluconazole (−),[8],> 64 µg/mL
same,"Fluconazole MIC50, + milbemycin α9",[20],2 µg/mL
same,"Fluconazole MIC Range, + milbemycin α9",[20],<0.25 to 16 µg/mL
same,Reduction of fluconazole MIC90 by milbemycin α9,[20]; C. glabrata (n=12),16 fold
same,"Fluconazole MIC90, + milbemycin α9","[20]; C. glabrata n = 12, MIC (80%) in YPD",8 µg/mL
same,FEPIhalf (concentration needed to reduce activity of efflux pump by 50%),[9],>64
same,MIC of compound in the presence of fluconazole (+),[10],> 64 µg/mL
same,MIC of compound in the absence of fluconazole (−),[10],> 64 µg/mL
same,MIC of compound in the presence of fluconazole (+),[11],≦0.03
same,MIC of compound in the absence of fluconazole (−),[11],> 64 µg/mL
same,IC50,[12],< 0.0941 µM
same,MIC of compound in the presence of fluconazole (+),[13],≦0.03
same,MIC of compound in the absence of fluconazole (−),[13],> 64 µg/mL
same,IC50,[14],6.27 µM
same,"FEPI MIC with fluconazole, 60% Inh",[15],≦0.063
same,"FEPI MIC with fluconazole, 80% Inh",[15],0.5
same,"FEPI MIC with itraconazole, 60% Inh",[15],1
same,"FEPI MIC with itraconazole, 80% Inh",[15],4
same,"FEPI MIC with ketoconazole, 60% Inh",[15],0.125
same,"FEPI MIC with ketoconazole, 80% Inh",[15],0.125
same,FEPI MIC (alone),[15],>64
same,MIC of compound in the presence of fluconazole (+),[16],≦0.03
same,MIC of compound in the absence of fluconazole (−),[16],> 64 µg/mL
same,"Fluconazole MIC, + milbemycin α9",[21],16 µg/mL
